{"source": "paper PMC2361662", "about": "(British Journal of Cancer, 2005)", "key": {"STAT3": {"system": "STAT3", "assay": "STAT3 phosphorylation, immunoblot", "assay_type": "cell-based", "details": "NR6M cells (EGFRvIII-expressing)", "protocol": "(§1) For determination of phosphorylated proteins, 5 μg whole cell lysate from serum-starved cells was resolved by SDS–PAGE and electroblotted onto nitrocellulose membranes. After transfer and blocking in 5% nonfat milk, primary antibody staining was carried out by incubation overnight at 4°C, and secondary antibody staining was for 1 h at room temperature. The chemiluminescence detection method (ECL) was used for all Western blot experiments.\n(§2) Extracellular regulated kinase-1 and -2 (ERK-2), phospholipase C γ (PLC-γ), protein kinase B (AKT) and the signal transducer and activator of transcription 3 (STAT3) are all essential downstream targets of EGFR and mediate many of its oncogenic effects.\n(§3) Figure 3 (A) Phosphorylation of key signalling molecules upon EGF (10 nM for 10 min) stimulation in the four cell lines."}, "ERK": {"system": "ERK", "assay": "ERK phosphorylation, immunoblot", "assay_type": "cell-based", "protocol": "as §1, §2, §3"}, "[1]": {"system": "EGFRvIII-expressing cells", "parameters": "method as in Montgomery, 2002", "details": "ref Montgomery, 2002; cited from earlier work"}, "LN229/EGFR cells": {"system": "LN229/EGFR cells", "parameters": "method as in Li et al (2003)", "details": "ref Li et al (2003); cited from earlier work"}}, "data": [{"smiles": "COc1cc2ncnc(Nc3ccc(F)c(Cl)c3)c2cc1OCCCN1CCOCC1", "note": "[gefitinib]", "values": [{"measurement": "Effect on background level of STAT3 phosphorylation", "setting": "STAT3", "value": "no effect"}, {"measurement": "Effect on ERK phosphorylation", "setting": "ERK; NR6M cells, 0.1 μM gefitinib, after 48 and 72 h", "value": "increased"}, {"measurement": "Response of ERK phosphorylations to gefitinib", "setting": "ERK; NR6W cells, up to the highest concentrations (2 μM)", "value": "unresponsive"}]}, {"smiles": "COc1cc2ncnc(Nc3cccc(Cl)c3)c2cc1OC", "note": "[AG1478]", "values": [{"measurement": "Concentration that stimulated colony formation", "setting": "[1]", "value": 0.1, "unit": "µM"}]}, {"smiles": "COc1cc2ncnc(Nc3cccc(Br)c3)c2cc1OC", "note": "[PD153035]", "values": [{"measurement": "Concentration that stimulated proliferation", "setting": "LN229/EGFR cells", "value": 0.05, "unit": "µM"}]}]}
